Measurements reported in patent US6274715A, “Tricyclic erythromycin derivatives” (priority 1997, dated 2001).
Converted amounts (≈) assume the structure as drawn.

Columns and labels:
Format in all cases: cell-based
[1] = test system: STAPHYLOCOCCUS AUREUS ATCC 6538P; assay: In vitro antibacterial activity, MIC, BHI agar dilution; settings: S. aureus ATCC 6538P, 35-37° C., 20 to 24 hours, unit assumed
[2] = test system: STAPHYLOCOCCUS AUREUS A5177; assay: as above; settings: S. aureus A5177, unit assumed
[3] = test system: STAPHYLOCOCCUS AUREUS A-5278; assay: as above; settings: S. aureus A-5278, unit assumed
[4] = test system: STAPHYLOCOCCUS AUREUS CMX 642A; assay: as above; settings: S. aureus CMX 642A, unit assumed
[5] = test system: STAPHYLOCOCCUS AUREUS NCTC10649M; assay: as above; settings: S. aureus NCTC10649M, unit assumed
[6] = test system: STAPHYLOCOCCUS AUREUS CMX 553; assay: as above; settings: S. aureus CMX 553, unit assumed
[7] = test system: STAPHYLOCOCCUS AUREUS 1775; assay: as above; settings: S. aureus 1775, unit assumed
[8] = test system: STAPHYLOCOCCUS EPIDERMIDIS 3519; settings: S. epidermidis 3519; BHI agar; unit assumed
[9] = test system: EN[…] ATCC 8043; assay: In vitro antibacterial activity, MIC, BHI agar dilution; settings: E. faecium ATCC 8043, unit assumed
Method in brief: (§1)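 Twelve successive aqueous dilutions of compound in Brain Heart Infusion agar were inoculated with 1:100 culture dilutions (1:10 for slow growers such as Micrococcus, Streptococcus) by Steers replicator and incubated at 35-37° C for 20 to 24 hours. MIC was the lowest concentration giving no growth, slight haze or sparse colonies versus drug-free control.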

[10] = test system: M[…] ATCC 4698; assay: as above; settings: M. luteus ATCC 4698, unit assumed
Method in brief: as §1

[11] = test system: M[…] ATCC 9341; assay: as above; settings: M. luteus ATCC 9341, unit assumed
Method in brief: as §1

[12] = test system: STR[…] 508; assay: as above; settings: S. agalactiae CMX 508, unit assumed
Method in brief: as §1

[13] = test system: STREPTOCOCCUS BOVIS A-5169; assay: as above; settings: S. bovis A-5169, unit assumed
[14] = test system: STREPTOCOCCUS PYOGENES EES61; assay: as above; settings: S. pyogenes EES61, unit assumed
[15] = test system: STREPTOCOCCUS PYOGENES 930; assay: as above; settings: S. pyogenes 930, unit assumed
[16] = test system: STREPTOCOCCUS PYOGENES PIU 2548; assay: as above; settings: S. pyogenes PIU 2548, unit assumed
[17] = test system: ESCHERICHIA COLI JUHL; settings: E. coli JUHL; BHI agar; unit assumed
[18] = test system: ESCHERICHIA COLI SS; assay: In vitro antibacterial activity, MIC, BHI agar dilution; settings: E. coli SS, unit assumed
[19] = test system: ESCHERICHIA COLI DC-2; assay: as above; settings: E. coli DC-2, unit assumed
[20] = test system: ESCHERICHIA COLI H560; assay: as above; settings: E. coli H560, unit assumed
[21] = test system: ESCHERICHIA COLI KNK 437; settings: E. coli KNK 437; BHI agar; unit assumed
[22] = test system: ENTEROBACTER AEROGENES ATCC 13048; assay: In vitro antibacterial activity, MIC, BHI agar dilution; settings: E. aerogenes ATCC 13048, unit assumed
[23] = test system: KLEBSIELLA PNEUMONIAE ATCC 8045; assay: as above; settings: K. pneumoniae ATCC 8045, unit assumed
[24] = test system: PROVIDENCIA STUARTII CMX 640; settings: P. stuartii CMX 640; BHI agar; unit assumed
[25] = test system: PSEUDOMONAS AERUGINOSA BMH10; assay: In vitro antibacterial activity, MIC, BHI agar dilution; settings: P. aeruginosa BMH10, unit assumed
[26] = test system: PSEUDOMONAS AERUGINOSA 5007; assay: as above; settings: P. aeruginosa 5007, unit assumed
[27] = test system: PSEUDOMONAS AERUGINOSA K799/WT; assay: as above; settings: P. aeruginosa K799/WT, unit assumed
[28] = test system: PSEUDOMONAS AERUGINOSA K799/61; assay: as above; settings: P. aeruginosa K799/61, unit assumed
[29] = test system: PSEUDOMONAS CEPACIA 296I; assay: as above; settings: P. cepacia 296I, unit assumed
[30] = test system: PSEUDOMONAS AERUGINOSA DPHD-5263; assay: as above; settings: P. aeruginosa DPHD-5263, unit assumed
[31] = test system: PSEUDOMONAS AERUGINOSA DPHD-2862; assay: as above; settings: P. aeruginosa DPHD-2862, unit assumed
[32] = test system: CANDIDA ALBICANS CCH 442; assay: as above; settings: C. albicans CCH 442, unit assumed
[33] = test system: MYCOBACTERIUM SMEGMATIS ATCC 114; assay: as above; settings: M. smegmatis ATCC 114, unit assumed

Row | Compound | MIC [1] [mg/L] | MIC [2] [mg/L] | MIC [3] [mg/L] | MIC [4] [mg/L] | MIC [5] [mg/L] | MIC [6] [mg/L] | MIC [7] [mg/L] | MIC [8] [mg/L] | MIC [9] [mg/L] | MIC [10] [mg/L] | MIC [11] [mg/L] | MIC [12] [mg/L] | MIC [13] [mg/L] | MIC [14] [mg/L] | MIC [15] [mg/L] | MIC [16] [mg/L] | MIC [17] [mg/L] | MIC [18] [mg/L] | MIC [19] [mg/L] | MIC [20] [mg/L] | further results
1 | CC[C@H]1OC(=O)[C@H](C)C(=O)[C@H](C)[C@@H](O[C@@H]2O[C@H](C)C[C@H](N(C)C)[C@H]2O)[C@](C)(OC)C[C@@H](C)C2=NCC(COC(=O)c3ccc(Cl)cc3)N3C(=O)O[C@@]1(C)[C@H]3[C@H]2C (stereo partly drawn) [Example 141] | 0.1 (≈ 0.124 µM) | 0.1 (≈ 0.124 µM) | 50 (≈ 62 µM) | 0.1 (≈ 0.124 µM) | 0.1 (≈ 0.124 µM) | 0.1 (≈ 0.124 µM) | 50 (≈ 62 µM) | 0.1 (≈ 0.124 µM) | 0.02 (≈ 0.0248 µM) | 0.1 (≈ 0.124 µM) | 0.01 (≈ 0.0124 µM) | 0.02 (≈ 0.0248 µM) | ≤ 0.005 | ≤ 0.005 | 50 (≈ 62 µM) | 0.2 (≈ 0.248 µM) | 50 (≈ 62 µM) | 0.78 (≈ 0.967 µM) | 50 (≈ 62 µM) | 12.5 (≈ 15.5 µM) | MIC [21]: 50 mg/L (≈ 62 µM); MIC [22]: > 100 mg/L; MIC [23]: 100 mg/L (≈ 124 µM); MIC [24]: > 100 mg/L; MIC [25]: 100 mg/L (≈ 124 µM); MIC [26]: > 100 mg/L; MIC [27]: > 100 mg/L; MIC [28]: 1.56 mg/L (≈ 1.93 µM); MIC [29]: 25 mg/L (≈ 31 µM); MIC [30]: > 100 mg/L; MIC [31]: > 100 mg/L; MIC [32]: > 100 mg/L; MIC [33]: 0.2 mg/L (≈ 0.248 µM)
2 | CC[C@H]1OC(=O)[C@H](C)C(=O)[C@H](C)[C@@H](O[C@@H]2O[C@H](C)C[C@H](N(C)C)[C@H]2O)[C@](C)(OC)C[C@@H](C)C2=NCC(COC(=O)c3ccc4ccccc4n3)N3C(=O)O[C@@]1(C)[C@H]3[C@H]2C (stereo partly drawn) [Example 142] | 0.2 (≈ 0.243 µM) | 0.2 (≈ 0.243 µM) | > 100 | 0.2 (≈ 0.243 µM) | 0.2 (≈ 0.243 µM) | 0.2 (≈ 0.243 µM) | > 100 | 0.2 (≈ 0.243 µM) | 0.1 (≈ 0.122 µM) | 0.1 (≈ 0.122 µM) | 0.02 (≈ 0.0243 µM) | 0.01 (≈ 0.0122 µM) | 0.01 (≈ 0.0122 µM) | 0.01 (≈ 0.0122 µM) | > 100 | 0.39 (≈ 0.474 µM) | 50 (≈ 60.8 µM) | 1.56 (≈ 1.9 µM) | 25 (≈ 30.4 µM) | 25 (≈ 30.4 µM) | MIC [21]: 100 mg/L (≈ 122 µM); MIC [22]: > 100 mg/L; MIC [23]: > 100 mg/L; MIC [24]: > 100 mg/L; MIC [25]: > 100 mg/L; MIC [26]: > 100 mg/L; MIC [27]: > 100 mg/L; MIC [28]: 1.56 mg/L (≈ 1.9 µM); MIC [29]: > 100 mg/L; MIC [30]: > 100 mg/L; MIC [31]: > 100 mg/L; MIC [32]: > 100 mg/L; MIC [33]: 1.56 mg/L (≈ 1.9 µM)
3 | CC[C@H]1OC(=O)[C@H](C)C(=O)[C@H](C)[C@@H](O[C@@H]2O[C@H](C)C[C@H](N(C)C)[C@H]2O)[C@](C)(OC)C[C@@H](C)C2=NCC(COC(=O)c3cc4ccccc4n3C)N3C(=O)O[C@@]1(C)[C@H]3[C@H]2C (stereo partly drawn) [Example 143] | 0.1 (≈ 0.121 µM) | 0.2 (≈ 0.242 µM) | 50 (≈ 60.6 µM) | 0.2 (≈ 0.242 µM) | 0.2 (≈ 0.242 µM) | 0.2 (≈ 0.242 µM) | 50 (≈ 60.6 µM) | 0.2 (≈ 0.242 µM) | 0.02 (≈ 0.0242 µM) | 0.2 (≈ 0.242 µM) | 0.01 (≈ 0.0121 µM) | 0.02 (≈ 0.0242 µM) | 0.01 (≈ 0.0121 µM) | 0.02 (≈ 0.0242 µM) | 50 (≈ 60.6 µM) | 0.39 (≈ 0.473 µM) | 50 (≈ 60.6 µM) | 0.78 (≈ 0.945 µM) | 50 (≈ 60.6 µM) | 25 (≈ 30.3 µM) | MIC [21]: 50 mg/L (≈ 60.6 µM); MIC [22]: > 100 mg/L; MIC [23]: > 100 mg/L; MIC [24]: > 100 mg/L; MIC [25]: > 100 mg/L; MIC [26]: > 100 mg/L; MIC [27]: > 100 mg/L; MIC [28]: 1.56 mg/L (≈ 1.89 µM); MIC [29]: 50 mg/L (≈ 60.6 µM); MIC [30]: > 100 mg/L; MIC [31]: > 100 mg/L; MIC [32]: 100 mg/L (≈ 121 µM); MIC [33]: 0.2 mg/L (≈ 0.242 µM)
4 | CC[C@H]1OC(=O)[C@H](C)C(=O)[C@H](C)[C@@H](O[C@@H]2O[C@H](C)C[C@H](N(C)C)[C@H]2O)[C@](C)(OC)C[C@@H](C)C2=NCC(COC(=O)c3cccc4[nH]ccc34)N3C(=O)O[C@@]1(C)[C@H]3[C@H]2C (stereo partly drawn) [Example 144] | 0.1 (≈ 0.123 µM) | 0.1 (≈ 0.123 µM) | > 100 | 0.1 (≈ 0.123 µM) | 0.1 (≈ 0.123 µM) | 0.1 (≈ 0.123 µM) | > 100 | 0.1 (≈ 0.123 µM) | 0.1 (≈ 0.123 µM) | 0.1 (≈ 0.123 µM) | 0.01 (≈ 0.0123 µM) | ≤ 0.005 | ≤ 0.005 | ≤ 0.005 | 100 (≈ 123 µM) | 0.39 (≈ 0.481 µM) | 50 (≈ 61.7 µM) | 0.78 (≈ 0.962 µM) | 50 (≈ 61.7 µM) | 50 (≈ 61.7 µM) | MIC [21]: 50 mg/L (≈ 61.7 µM); MIC [22]: 100 mg/L (≈ 123 µM); MIC [23]: 100 mg/L (≈ 123 µM); MIC [24]: > 100 mg/L; MIC [25]: > 100 mg/L; MIC [26]: > 100 mg/L; MIC [27]: > 100 mg/L; MIC [28]: 0.78 mg/L (≈ 0.962 µM); MIC [29]: 50 mg/L (≈ 61.7 µM); MIC [30]: > 100 mg/L; MIC [31]: > 100 mg/L; MIC [32]: > 100 mg/L; MIC [33]: 1.56 mg/L (≈ 1.92 µM)
